One assay has as its target full-length human PHD3 (Homo sapiens (Human), UniProt Q9H6Z9). The assay is described as follows: TR-FRET assay for PHD enzymes, PHD3. The class given is biochemical. An excerpt: Recombinant human PHD3 protein (molecular weight 31.1 kDa) was purchased from Active Motif (Carlsbad, CA, USA). It was expressed in E. coli as the full-length protein (NCBI accession number NP_071356.1) with an N-terminal 6-His tag (catalog #81033, Lot #24417001).
(In general: In TR-FRET formats the signal depends on donor and acceptor labels being close together.)

In another assay the target is full-length human PHD1 (Homo sapiens (Human), UniProt Q96KS0). The assay is described as follows: TR-FRET assay for PHD enzymes, PHD1. The class given is biochemical. The note with it: TR-FRET, 15 nM PHD1, 1 μM 2-OG. The text has this: PHD1 was expressed in a baculovirus expression system as the full-length protein (NCBI accession number NP_542770.2) with an N-terminal FLAG tag (molecular weight 44.9 kDa).
Sequence of full-length human PHD1 (Q96KS0 whole entry): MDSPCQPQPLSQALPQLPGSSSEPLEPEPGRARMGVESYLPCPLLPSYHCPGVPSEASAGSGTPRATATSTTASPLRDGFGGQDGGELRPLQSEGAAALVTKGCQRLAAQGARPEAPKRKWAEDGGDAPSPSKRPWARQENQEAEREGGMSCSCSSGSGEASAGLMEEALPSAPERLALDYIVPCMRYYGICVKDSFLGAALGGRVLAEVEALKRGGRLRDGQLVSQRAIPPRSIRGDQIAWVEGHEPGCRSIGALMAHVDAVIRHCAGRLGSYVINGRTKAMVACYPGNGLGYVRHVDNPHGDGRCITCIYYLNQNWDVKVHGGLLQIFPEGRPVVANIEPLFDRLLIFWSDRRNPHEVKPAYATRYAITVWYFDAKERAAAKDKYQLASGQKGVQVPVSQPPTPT

The target of the next assay is full-length human PHD2 (Homo sapiens (Human), UniProt Q9GZT9). Description: TR-FRET assay for PHD enzymes, PHD2.
Sequence of full-length human PHD2 (Q9GZT9 whole entry): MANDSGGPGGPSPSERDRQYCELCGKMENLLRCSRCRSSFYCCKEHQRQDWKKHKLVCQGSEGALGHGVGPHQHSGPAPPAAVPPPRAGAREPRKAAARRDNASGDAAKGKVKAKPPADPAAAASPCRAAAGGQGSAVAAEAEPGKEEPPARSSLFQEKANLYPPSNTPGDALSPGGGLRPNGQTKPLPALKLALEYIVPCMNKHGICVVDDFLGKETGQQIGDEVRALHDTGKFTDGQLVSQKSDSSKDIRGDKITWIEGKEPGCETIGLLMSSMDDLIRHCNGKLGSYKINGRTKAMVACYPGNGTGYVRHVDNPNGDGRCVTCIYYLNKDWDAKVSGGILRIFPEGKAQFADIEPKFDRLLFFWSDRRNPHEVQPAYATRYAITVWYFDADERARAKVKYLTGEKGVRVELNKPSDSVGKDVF
Where [1] appears, read: read-out: PHD2 IC50, TR-FRET, 5 nM PHD2, 1 μM 2-OG.

Like-named read-outs stand apart in the source and are kept apart here.

Sequence of full-length human PHD3 (Q9H6Z9 whole entry): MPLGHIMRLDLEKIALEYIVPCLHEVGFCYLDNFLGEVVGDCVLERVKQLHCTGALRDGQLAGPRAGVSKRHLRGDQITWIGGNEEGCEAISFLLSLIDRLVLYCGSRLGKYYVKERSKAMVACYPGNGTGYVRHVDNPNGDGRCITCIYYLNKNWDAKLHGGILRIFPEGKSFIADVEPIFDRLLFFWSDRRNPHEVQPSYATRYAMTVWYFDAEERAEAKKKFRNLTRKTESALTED
Description for full-length human PHD2: Time-resolved fluorescence resonance energy transfer (TR-FRET) assay was utilized to determine the enzymatic half maximal inhibitory concentration (IC50) value of PHD inhibitors against the full-length human prolyl-4-hydroxylase domain (PHD) enzymes, PHD1, PHD2, and PHD3. The TR-FRET assay was developed based on the specific binding of hydroxylated HIF-1α peptide with the complex formed by VHL, EloB and EloC (VBC), to generate a fluorescent signal. Terbium (Tb)-Donor (monoclonal antibody anti-6His-Tb-cryptate Gold) and D2-acceptor (streptavidin [SA]-D2) of TR-FRET are linked to the VBC complex and to HIF-1α peptide, respectively. The VBC complex binds specifically to the HIF-1α peptide when it is hydroxylated, allowing energy transfer from TR-FRET donor to acceptor (FIG. 1). […] The plates were incubated for 30 minutes at room temperature without rotation. […] TR-FRET assays were performed in triplicate at each concentration of compound and the assays were repeated independently three times.

In general, IC50 refers to the concentration needed to halve the response being measured. On to `COc1cccc(-c2cnc(C(=O)NCC(=O)O)c(O)c2C)c1` [Compound 2, (3-Hydroxy-5-(3-methoxyphenyl)-4-methylpicolinoyl)glycine], for which the IC50 against full-length human PHD3 (TR-FRET, 35 nM PHD3, 1 μM 2-OG) was below 100 nM; against full-length human PHD1 it was below 100 nM; at full-length human PHD2 (setting [1]), below 100 nM.

Regarding `Cc1c(-c2ccc3cnccc3c2)cnc(C(=O)NCC(=O)O)c1O` [Compound 3, (3-Hydroxy-5-(isoquinolin-6-yl)-4-methylpicolinoyl)glycine], the IC50 against full-length human PHD3 (TR-FRET, 35 nM PHD3, 1 μM 2-OG) was below 100 nM; on full-length human PHD1, below 100 nM; on full-length human PHD2 (setting [1]), below 100 nM.

Take `Cc1ccc2cc(-c3cnc(C(=O)NCC(=O)O)c(O)c3C)ccc2n1` [Compound 5, (3-Hydroxy-4-methyl-5-(2-methylquinolin-6-yl)picolinoyl)glycine]: the half-maximal inhibitory concentration (IC50) against full-length human PHD3 (TR-FRET, 35 nM PHD3, 1 μM 2-OG) was below 100 nM; against full-length human PHD1, below 100 nM; on full-length human PHD2 (setting [1]), below 100 nM.

Consider `Cc1c(-c2cnc(-c3ccccc3)s2)cnc(C(=O)NCC(=O)O)c1O` [Compound 7, (3-Hydroxy-4-methyl-5-(2-phenylthiazol-5-yl)picolinoyl)glycine], for which the IC50 was below 100 nM at full-length human PHD3 (TR-FRET, 35 nM PHD3, 1 μM 2-OG); below 100 nM against full-length human PHD1; below 100 nM at full-length human PHD2 (setting [1]).

Take `Cc1c(-c2ccc(C(F)(F)F)nc2)cnc(C(=O)NCC(=O)O)c1O` [Compound 9, (5-Hydroxy-4-methyl-6′-(trifluoromethyl)-[3,3′-bipyridine]-6-carbonyl)glycine]: the half-maximal inhibitory concentration (IC50) on full-length human PHD3 (TR-FRET, 35 nM PHD3, 1 μM 2-OG) was below 100 nM; against full-length human PHD1 it was below 100 nM; at full-length human PHD2 (setting [1]), below 100 nM.

Take `Cc1c(-c2cccnc2)cnc(C(=O)NCC(=O)O)c1O` [Compound 10, (5-Hydroxy-4-methyl-[3,3′-bipyridine]-6-carbonyl)glycine]: the IC50 was below 100 nM against full-length human PHD3 (TR-FRET, 35 nM PHD3, 1 μM 2-OG); below 100 nM against full-length human PHD1; below 100 nM at full-length human PHD2 (setting [1]).

Consider `Cc1c(-c2cnn(-c3ccccn3)c2)cnc(C(=O)NCC(=O)O)c1O` [Compound 18, (3-Hydroxy-4-methyl-5-(1-(pyridin-2-yl)-1H-pyrazol-4-yl)picolinoyl)glycine], for which the half-maximal inhibitory concentration (IC50) is below 100 nM at full-length human PHD3 (TR-FRET, 35 nM PHD3, 1 μM 2-OG); below 100 nM on full-length human PHD1; below 100 nM at full-length human PHD2 (setting [1]).

As for `Cc1c(-c2cnn(-c3ccc(F)cc3)c2)cnc(C(=O)NCC(=O)O)c1O` [Compound 19, (5-(1-(4-Fluorophenyl)-1H-pyrazol-4-yl)-3-hydroxy-4-methylpicolinoyl)glycine], the IC50 against full-length human PHD3 (TR-FRET, 35 nM PHD3, 1 μM 2-OG) was below 100 nM; against full-length human PHD1, below 100 nM; on full-length human PHD2 (setting [1]), below 100 nM.

On to `Cc1c(-c2cnn(C(C)C)c2)cnc(C(=O)NCC(=O)O)c1O` [Compound 20, (3-Hydroxy-5-(1-isopropyl-1H-pyrazol-4-yl)-4-methylpicolinoyl)glycine], for which the IC50 on full-length human PHD3 (TR-FRET, 35 nM PHD3, 1 μM 2-OG) is below 100 nM; on full-length human PHD1 it was below 100 nM; at full-length human PHD2 (setting [1]), below 100 nM.

Take `Cc1c(-c2cnn(C3CCOCC3)c2)cnc(C(=O)NCC(=O)O)c1O` [Compound 21, (3-Hydroxy-4-methyl-5-(1-(tetrahydro-2H-pyran-4-yl)-1H-pyrazol-4-yl)picolinoyl)glycine]: the 50% inhibitory concentration (IC50) against full-length human PHD3 (TR-FRET, 35 nM PHD3, 1 μM 2-OG) is below 100 nM; at full-length human PHD1, below 100 nM; at full-length human PHD2 (setting [1]), below 100 nM.

Consider `Cc1c(-c2cnn(CC(C)C)c2)cnc(C(=O)NCC(=O)O)c1O` [Compound 22, (3-Hydroxy-5-(1-isobutyl-1H-pyrazol-4-yl)-4-methylpicolinoyl)glycine], for which the half-inhibitory concentration (IC50) against full-length human PHD3 (TR-FRET, 35 nM PHD3, 1 μM 2-OG) was below 100 nM; on full-length human PHD1, below 100 nM; at full-length human PHD2 (setting [1]) it was below 100 nM.

Take `Cc1nc(C(=O)NCC(=O)O)c(O)c(C)c1-c1cnn(-c2ccccc2)c1` [Compound 25, (3-Hydroxy-4,6-dimethyl-5-(1-phenyl-1H-pyrazol-4-yl)picolinoyl)glycine]: the half-maximal inhibitory concentration (IC50) against full-length human PHD3 (TR-FRET, 35 nM PHD3, 1 μM 2-OG) was below 100 nM; against full-length human PHD1, below 100 nM; on full-length human PHD2 (setting [1]), below 100 nM.

Turning to `Cc1c(-c2cnc(-c3ccccc3)o2)cnc(C(=O)NCC(=O)O)c1O` [Compound 26, (3-hydroxy-4-methyl-5-(2-phenyloxazol-5-yl)picolinoyl)glycine], the IC50 is below 100 nM on full-length human PHD3 (TR-FRET, 35 nM PHD3, 1 μM 2-OG); below 100 nM against full-length human PHD1; below 100 nM on full-length human PHD2 (setting [1]).

Consider `Cc1ccc(-c2cnc(C(=O)NCC(=O)O)c(O)c2C)cn1` [Compound 27, (5-hydroxy-4,6′-dimethyl-[3,3′-bipyridine]-6-carbonyl)glycine], for which the results for the IC50 against full-length human PHD3, on full-length human PHD1 and on full-length human PHD2 (setting [1]) were 100 to 1000 nM, below 100 nM and below 100 nM, respectively.

Consider `Cc1c(-c2cnc3ccccc3c2)cnc(C(=O)NCC(=O)O)c1O` [Compound 28], for which the half-maximal inhibitory concentration (IC50) against full-length human PHD3 (TR-FRET, 35 nM PHD3, 1 μM 2-OG) is below 100 nM; against full-length human PHD1, below 100 nM; on full-length human PHD2 (setting [1]), below 100 nM.

As for `Cc1c(Oc2ccccc2)cnc(C(=O)NCC(=O)O)c1O` [Compound 35, (3-hydroxy-4-methyl-5-phenoxypicolinoyl)glycine], the IC50 against full-length human PHD1 and on full-length human PHD2 (setting [1]) was 100 to 1000 nM throughout.

As for `Cc1c(C(=O)c2ccccc2)cnc(C(=O)NCC(=O)O)c1O` [Compound 40, (5-benzoyl-3-hydroxy-4-methylpicolinoyl)glycine], the IC50 on full-length human PHD1 and against full-length human PHD2 was 100 to 1000 nM throughout.

Regarding `Cc1c(-c2nnn(-c3cc(Cl)cc(Cl)c3)n2)cnc(C(=O)NCC(=O)O)c1O` [Compound 45, (5-(2-(3,5-dichlorophenyl)-2H-tetrazol-5-yl)-3-hydroxy-4-methylpicolinoyl)glycine], the IC50 at full-length human PHD1 and on full-length human PHD2 (setting [1]) was below 100 nM each time.

Regarding `CCc1c(-c2cccc(Cl)c2)cnc(C(=O)NCC(=O)O)c1O` [Compound 46, (5-(3-chlorophenyl)-4-ethyl-3-hydroxypicolinoyl)glycine], the IC50 on full-length human PHD1 and on full-length human PHD2 (setting [1]) was below 100 nM throughout.

Take `Cc1c(-c2cnn(-c3ccccc3)c2F)cnc(C(=O)NCC(=O)O)c1O` [Compound 49, (5-(5-fluoro-1-phenyl-1H-pyrazol-4-yl)-3-hydroxy-4-methylpicolinoyl)glycine]: the IC50 at full-length human PHD1 and on full-length human PHD2 (setting [1]) was below 100 nM in each case.

`Cc1c(-c2cnn(-c3ccccc3)c2C)cnc(C(=O)NCC(=O)O)c1O` [Compound 50, (3-hydroxy-4-methyl-5-(5-methyl-1-phenyl-1H-pyrazol-4-yl)picolinoyl)glycine]: the IC50 on full-length human PHD1 and against full-length human PHD2 was 100 to 1000 nM in each case.

Take `Cc1c(-c2ccn(-c3ccccc3)c2)cnc(C(=O)NCC(=O)O)c1O` [Compound 51]: the half-maximal inhibitory concentration (IC50) against full-length human PHD1 was below 100 nM; at full-length human PHD2 it was 100 to 1000 nM.

Consider `Cc1c(-c2nnn(C3CC3)n2)cnc(C(=O)NCC(=O)O)c1O` [Compound 52], for which the IC50 against full-length human PHD1 and on full-length human PHD2 (setting [1]) was below 100 nM throughout.

Consider `Cc1c(C#CCOc2ccccc2)cnc(C(=O)NCC(=O)O)c1O` [Compound 53], for which the IC50 against full-length human PHD1 and at full-length human PHD2 (setting [1]) was below 100 nM in each case.

Regarding `Cc1c(S(=O)(=O)c2ccccc2)cnc(C(=O)NCC(=O)O)c1O` [Compound 54], the IC50 against full-length human PHD1 and at full-length human PHD2 was 100 to 1000 nM in each case.

For the compound `Cc1c(N2CCN(c3ccccc3)CC2)cnc(C(=O)NCC(=O)O)c1O` [Compound 55], the IC50 against full-length human PHD1 is below 100 nM; at full-length human PHD2 it was 100 to 1000 nM.

For the compound `Cc1c(N2CCC(c3ccccc3)CC2)cnc(C(=O)NCC(=O)O)c1O` [Compound 56], the IC50 against full-length human PHD1 and at full-length human PHD2 (setting [1]) was below 100 nM throughout.

For `Cc1c(Oc2ccccc2)cnc(C(=O)NCC(=O)O)c1O` [Compound 57, 2-(3-hydroxy-4-methyl-5-phenoxypicolinamido)acetic acid], the IC50 against full-length human PHD1 is 1000 to 10000 nM; against full-length human PHD2, 100 to 1000 nM.

On to `Cc1c(Cc2ccccc2)cnc(C(=O)NCC(=O)O)c1O` [Compound 58], for which the results for the IC50 against full-length human PHD1 and at full-length human PHD2 were 1000 to 10000 nM and 100 to 1000 nM, respectively.

On to `Cc1c(Sc2ccccc2)cnc(C(=O)NCC(=O)O)c1O` [Compound 59], for which the concentration for half-maximal inhibition (IC50) against full-length human PHD1 was in the range of 1000 to 10000 nM; on full-length human PHD2 it was 100 to 1000 nM.

On to `Cc1c(-c2cnn(-c3ccc(Cl)cc3Cl)c2)cnc(C(=O)NCC(=O)O)c1O` [Compound 60], for which the IC50 against full-length human PHD1 and on full-length human PHD2 (setting [1]) was below 100 nM in each case.

Take `Cc1c(CCc2ccccc2)cnc(C(=O)NCC(=O)O)c1O` [Compound 61]: the IC50 at full-length human PHD1 and on full-length human PHD2 was 100 to 1000 nM in each case.

With `Cc1c(C#Cc2ccccc2)cnc(C(=O)NCC(=O)O)c1O` [Compound 62], the IC50 against full-length human PHD1 and on full-length human PHD2 (setting [1]) was below 100 nM each time.

For `Cc1c(-c2nnn(-c3ccc(Cl)cc3)n2)cnc(C(=O)NCC(=O)O)c1O` [Compound 63], the IC50 against full-length human PHD1 and on full-length human PHD2 (setting [1]) was below 100 nM each time.

On to `Cc1c(-c2nn[nH]n2)cnc(C(=O)NCC(=O)O)c1O` [Compound 64], for which the IC50 on full-length human PHD1 and against full-length human PHD2 was 100 to 1000 nM throughout.

As to `Cc1c(-c2nnn(-c3ccccc3)n2)cnc(C(=O)NCC(=O)O)c1O` [Compound 65], the IC50 against full-length human PHD1 and on full-length human PHD2 (setting [1]) was below 100 nM each time.

For `Cc1c(-c2cnn(-c3cc(Cl)cc(Cl)c3)c2)cnc(C(=O)NCC(=O)O)c1O` [Compound 66], the IC50 on full-length human PHD1 and at full-length human PHD2 (setting [1]) was below 100 nM in each case.

Take `Cc1c(-c2cnn(-c3ccc(C(F)(F)F)cc3)c2)cnc(C(=O)NCC(=O)O)c1O` [Compound 67]: the IC50 against full-length human PHD1 and at full-length human PHD2 (setting [1]) was below 100 nM throughout.

Take `O=C(O)CNC(=O)c1ncc(-c2cccc(Cl)c2)c(C2CC2)c1O` [Compound 69, (5-(3-Chlorophenyl)-4-cyclopropyl-3-hydroxypicolinoyl)glycine]: the half-maximal inhibitory concentration (IC50) on full-length human PHD1 and at full-length human PHD2 was 100 to 1000 nM in each case.

Turning to `O=C(O)CNC(=O)c1ncc(-c2cccc(Cl)c2)c(C(F)F)c1O` [Compound 70, (5-(3-Chlorophenyl)-4-(difluoromethyl)-3-hydroxypicolinoyl)glycine], the IC50 at full-length human PHD1 and against full-length human PHD2 was 100 to 1000 nM throughout.
